Measured values taken from patent US20200172529A1, “Chemical Compound, Pharmaceutical Composition Thereof, and Use and Application Thereof” (Beijing Hanmi Pharm. Co., Ltd., priority 2017, published 2020).

Assays:
Type in all cases: biochemical
JAK1 kinase = JAK1 kinase (Homo sapiens, UniProt P23458); assay: Inhibition assay of JAK1 kinase activity (ADP-Glo Kinase Assay)
Description: Inhibition assay of JAK1 kinase activity: the method in ADP-Glo™ Kinase Assay (Promega, V9102) was used to determine the inhibitory activity of the test compounds against JAK1 kinase.

TYK2 kinase = target: T1, TYK2 kinase (Homo sapiens, UniProt P29597); assay: Inhibition assay of TYK2 kinase activity (ADP-Glo Kinase Assay)
T1 construct: purchased Life Technologies PR8440C
T1 sequence (P29597 whole entry): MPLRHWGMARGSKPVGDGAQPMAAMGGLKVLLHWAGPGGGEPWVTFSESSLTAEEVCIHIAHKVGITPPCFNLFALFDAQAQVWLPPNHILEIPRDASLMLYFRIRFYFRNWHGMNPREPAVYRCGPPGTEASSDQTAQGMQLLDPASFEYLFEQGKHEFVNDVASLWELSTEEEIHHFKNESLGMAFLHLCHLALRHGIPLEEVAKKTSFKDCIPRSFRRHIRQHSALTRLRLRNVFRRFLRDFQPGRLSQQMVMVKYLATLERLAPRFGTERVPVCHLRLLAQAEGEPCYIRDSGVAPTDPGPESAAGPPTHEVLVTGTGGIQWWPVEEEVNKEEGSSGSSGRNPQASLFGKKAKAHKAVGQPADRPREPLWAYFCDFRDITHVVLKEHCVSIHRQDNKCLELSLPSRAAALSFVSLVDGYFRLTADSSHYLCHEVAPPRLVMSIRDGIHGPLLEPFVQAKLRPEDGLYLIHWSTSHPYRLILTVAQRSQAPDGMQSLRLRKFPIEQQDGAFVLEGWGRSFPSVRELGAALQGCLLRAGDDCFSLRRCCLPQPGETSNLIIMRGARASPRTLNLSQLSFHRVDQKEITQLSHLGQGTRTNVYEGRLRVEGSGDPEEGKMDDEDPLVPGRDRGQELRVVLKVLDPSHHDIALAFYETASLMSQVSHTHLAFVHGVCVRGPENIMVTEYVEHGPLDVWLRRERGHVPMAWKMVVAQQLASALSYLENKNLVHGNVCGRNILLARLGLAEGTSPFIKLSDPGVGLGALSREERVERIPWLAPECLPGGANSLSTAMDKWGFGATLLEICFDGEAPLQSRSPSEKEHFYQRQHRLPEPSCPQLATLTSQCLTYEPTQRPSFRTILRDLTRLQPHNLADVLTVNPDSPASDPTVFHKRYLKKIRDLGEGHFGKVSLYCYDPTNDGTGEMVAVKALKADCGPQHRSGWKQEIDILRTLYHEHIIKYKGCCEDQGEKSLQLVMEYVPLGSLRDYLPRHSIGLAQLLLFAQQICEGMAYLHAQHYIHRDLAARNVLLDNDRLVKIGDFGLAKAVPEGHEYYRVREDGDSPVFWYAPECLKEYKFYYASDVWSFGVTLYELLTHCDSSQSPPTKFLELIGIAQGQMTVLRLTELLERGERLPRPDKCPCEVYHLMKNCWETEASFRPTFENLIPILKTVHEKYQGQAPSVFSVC
Description: Determination of inhibition of TYK2 kinase activity by the examples compounds disclosed herein
Inhibition assay of TYK2 kinase activity: the method of ADP-Glo™ Kinase Assay (Promega, V9102) was used to determine the inhibitory activity of the test compounds against TYK2 kinase.
TYK2 kinase (purchased from Life Technologies, article number: PR8440C) was diluted to the 2-fold final concentration (0.8 ng/mL) using reaction buffer (40 mM Tris-HCl, pH 7.5; 20 mM MgCl2; 0.1 mg/mL BSA; 1 mM DTT), and added to a 384-well plate at 5 μL/well. The test drugs were subjected to a 10-fold gradient dilution, from 10 μM, to obtain 6 concentrations, and added to experimental wells of the 384-well plate at 2.5 μL/well. 5 μL of water and 2.5 μL of buffer were added to negative control wells. 5 μL of TYK2 and 2.5 μL of water were added to positive control wells. After incubating for 10 minutes at room temperature, the substrate ATP and polyE4Y1 (Sigma, P0275) were added at 2.5 μL/well, mixed well, and then reacted at room temperature for 60 minutes. After the reaction was completed, the kinase activity was detected according to the instruction of the kit. First, the ADP-Glo reaction reagent was added at 10 μL/well, mixed well, and reacted at room temperature for 40 minutes. The kinase detection reagent was then added at 20 μL/well, mixed well, and then reacted at room temperature for 30 minutes. The detection was then performed and the IC50s of test drugs were calculated.

JAK2 kinase = JAK2 kinase (Homo sapiens, UniProt O60674); assay: Inhibition assay of JAK2 kinase activity (ADP-Glo Kinase Assay)
Chain of JAK2 kinase (O60674 whole entry): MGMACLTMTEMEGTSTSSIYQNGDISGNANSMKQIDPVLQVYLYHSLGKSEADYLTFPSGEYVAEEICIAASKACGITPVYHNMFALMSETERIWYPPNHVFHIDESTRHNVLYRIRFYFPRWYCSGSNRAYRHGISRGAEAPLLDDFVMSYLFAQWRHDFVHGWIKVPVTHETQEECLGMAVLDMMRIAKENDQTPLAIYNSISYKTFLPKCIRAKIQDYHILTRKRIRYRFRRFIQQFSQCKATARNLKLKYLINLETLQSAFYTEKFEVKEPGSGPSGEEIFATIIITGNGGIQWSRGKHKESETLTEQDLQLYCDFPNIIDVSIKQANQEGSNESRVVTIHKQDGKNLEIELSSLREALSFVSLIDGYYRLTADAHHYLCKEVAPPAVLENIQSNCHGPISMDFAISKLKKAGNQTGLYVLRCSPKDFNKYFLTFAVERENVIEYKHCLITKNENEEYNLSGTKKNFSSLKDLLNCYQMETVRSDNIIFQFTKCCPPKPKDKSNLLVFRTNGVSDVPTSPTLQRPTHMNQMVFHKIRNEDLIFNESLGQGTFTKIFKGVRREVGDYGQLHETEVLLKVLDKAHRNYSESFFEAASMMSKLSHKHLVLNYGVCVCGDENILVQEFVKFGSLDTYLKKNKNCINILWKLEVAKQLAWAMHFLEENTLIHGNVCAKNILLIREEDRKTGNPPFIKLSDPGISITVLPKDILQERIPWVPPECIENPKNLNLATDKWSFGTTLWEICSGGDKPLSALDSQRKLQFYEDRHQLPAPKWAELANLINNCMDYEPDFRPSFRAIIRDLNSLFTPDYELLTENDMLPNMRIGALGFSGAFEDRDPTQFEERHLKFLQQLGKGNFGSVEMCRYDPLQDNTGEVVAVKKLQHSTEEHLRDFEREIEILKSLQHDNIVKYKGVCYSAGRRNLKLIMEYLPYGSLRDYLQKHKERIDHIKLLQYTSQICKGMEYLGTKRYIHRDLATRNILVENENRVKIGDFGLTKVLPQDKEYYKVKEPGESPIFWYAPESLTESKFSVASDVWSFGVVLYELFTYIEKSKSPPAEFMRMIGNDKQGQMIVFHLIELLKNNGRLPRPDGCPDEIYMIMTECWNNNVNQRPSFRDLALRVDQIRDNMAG
Description: Inhibition assay of JAK2 kinase activity: the method in ADP-Glo™ Kinase Assay (Promega, V9102) was used to determine the inhibitory activity of the test compounds against JAK2 kinase.

JAK3 kinase = target: T2, JAK3 kinase (Homo sapiens, UniProt P52333); assay: Inhibition assay of JAK3 kinase activity (ADP-Glo Kinase Assay)
T2 sequence (P52333 1-1124): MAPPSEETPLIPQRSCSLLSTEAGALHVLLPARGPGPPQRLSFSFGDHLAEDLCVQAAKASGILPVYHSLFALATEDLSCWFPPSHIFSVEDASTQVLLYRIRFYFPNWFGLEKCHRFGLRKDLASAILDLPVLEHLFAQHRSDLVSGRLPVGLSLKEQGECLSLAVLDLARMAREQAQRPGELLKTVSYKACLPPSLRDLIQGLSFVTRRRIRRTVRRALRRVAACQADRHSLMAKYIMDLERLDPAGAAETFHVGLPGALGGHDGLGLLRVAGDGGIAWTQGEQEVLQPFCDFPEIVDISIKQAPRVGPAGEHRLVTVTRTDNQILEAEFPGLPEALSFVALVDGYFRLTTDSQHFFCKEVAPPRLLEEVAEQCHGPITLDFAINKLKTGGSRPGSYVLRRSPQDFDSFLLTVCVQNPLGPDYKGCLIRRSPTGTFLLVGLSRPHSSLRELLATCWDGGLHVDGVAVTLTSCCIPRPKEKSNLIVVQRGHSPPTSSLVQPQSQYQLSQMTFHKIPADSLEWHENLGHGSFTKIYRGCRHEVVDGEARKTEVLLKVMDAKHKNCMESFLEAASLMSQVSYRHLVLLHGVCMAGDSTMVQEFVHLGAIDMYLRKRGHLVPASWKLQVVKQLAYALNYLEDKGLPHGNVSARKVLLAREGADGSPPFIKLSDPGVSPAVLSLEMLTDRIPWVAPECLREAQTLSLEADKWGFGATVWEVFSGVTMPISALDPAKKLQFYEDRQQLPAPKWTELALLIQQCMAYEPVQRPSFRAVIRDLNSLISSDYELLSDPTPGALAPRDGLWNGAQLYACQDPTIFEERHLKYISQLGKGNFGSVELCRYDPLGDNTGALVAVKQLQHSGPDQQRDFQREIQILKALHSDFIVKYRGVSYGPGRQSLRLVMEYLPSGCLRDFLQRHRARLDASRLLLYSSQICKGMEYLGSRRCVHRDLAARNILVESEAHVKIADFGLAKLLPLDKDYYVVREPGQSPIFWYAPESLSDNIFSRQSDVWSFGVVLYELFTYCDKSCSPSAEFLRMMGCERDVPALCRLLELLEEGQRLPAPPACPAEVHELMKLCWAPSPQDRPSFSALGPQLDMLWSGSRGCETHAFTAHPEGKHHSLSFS
Description: Inhibition assay of JAK3 kinase activity: the method in ADP-Glo™ Kinase Assay (Promega, V9102) was used to determine the inhibitory activity of the test compounds against JAK3 kinase.

Chain of JAK1 kinase (P23458 whole entry): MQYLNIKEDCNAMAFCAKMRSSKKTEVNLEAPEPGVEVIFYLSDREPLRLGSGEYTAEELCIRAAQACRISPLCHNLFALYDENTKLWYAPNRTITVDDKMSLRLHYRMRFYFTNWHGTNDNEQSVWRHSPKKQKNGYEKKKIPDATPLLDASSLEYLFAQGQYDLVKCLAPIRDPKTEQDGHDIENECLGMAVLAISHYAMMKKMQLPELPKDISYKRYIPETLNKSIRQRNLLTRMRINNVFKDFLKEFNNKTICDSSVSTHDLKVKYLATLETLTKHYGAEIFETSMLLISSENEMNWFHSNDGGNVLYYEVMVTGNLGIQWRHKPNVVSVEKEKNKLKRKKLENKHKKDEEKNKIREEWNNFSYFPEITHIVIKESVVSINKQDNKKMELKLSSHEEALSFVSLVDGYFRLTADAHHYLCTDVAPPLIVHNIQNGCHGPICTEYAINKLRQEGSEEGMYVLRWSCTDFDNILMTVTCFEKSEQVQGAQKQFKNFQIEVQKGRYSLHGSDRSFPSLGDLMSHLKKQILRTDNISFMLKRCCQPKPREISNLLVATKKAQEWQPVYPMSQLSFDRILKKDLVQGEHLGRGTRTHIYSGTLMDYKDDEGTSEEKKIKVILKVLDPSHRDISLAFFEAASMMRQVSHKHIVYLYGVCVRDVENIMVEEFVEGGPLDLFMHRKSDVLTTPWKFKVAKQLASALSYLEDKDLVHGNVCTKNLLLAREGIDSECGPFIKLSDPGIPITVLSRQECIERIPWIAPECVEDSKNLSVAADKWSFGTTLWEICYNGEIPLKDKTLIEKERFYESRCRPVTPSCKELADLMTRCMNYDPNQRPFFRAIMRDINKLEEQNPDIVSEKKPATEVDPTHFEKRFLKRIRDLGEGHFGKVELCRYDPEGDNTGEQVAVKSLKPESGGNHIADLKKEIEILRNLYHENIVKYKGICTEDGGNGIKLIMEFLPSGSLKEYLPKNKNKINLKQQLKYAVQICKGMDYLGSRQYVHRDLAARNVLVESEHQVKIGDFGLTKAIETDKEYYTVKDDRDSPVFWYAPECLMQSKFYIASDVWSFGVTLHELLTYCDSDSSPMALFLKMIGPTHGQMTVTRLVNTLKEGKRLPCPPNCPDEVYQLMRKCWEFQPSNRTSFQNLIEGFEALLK

| Structure (SMILES) | IC50 (JAK1 kinase) [nM] | IC50 (TYK2 kinase) [nM] | IC50 (JAK2 kinase) [nM] | IC50 (JAK3 kinase) [nM] |
| --- | --- | --- | --- | --- |
| NC(=O)c1cnc(Nc2ccc3c(c2)NC[C@H](O)CO3)nc1NC1C2CC3CC1CC(O)(C3)C2 (stereo partly drawn) [Example 38, 4-((1-hydroxyadamantan-4-yl)amino)-2-(((S)-2,3,4,5-tetrahydro-3-hydroxybenzo[b][1,4]oxazepin-7-yl)amino)pyrimidin-5-carboxamide] | < 10 | < 10 | < 10 | < 10 |
| CC(C)(C)Nc1nc(Nc2ccc3c(c2)NC[C@H](O)CO3)ncc1C(N)=O [Example 53, 4-(tert-butylamino)-2-(((S)-2,3,4,5-tetrahydro-3-hydroxybenzo[b][1,4]oxazepin-7-yl)amino)pyrimidin-5-carboxamide] | 10 to 100 | < 10 | 10 to 100 | 10 to 100 |
| COC12CC3CC(C1)C(Nc1nc(Nc4ccc5c(c4)NC[C@H](O)CO5)ncc1C(N)=O)C(C3)C2 (stereo partly drawn) [Example 46, 4-((5-methoxyadamantan-2-yl)amino)-2-(((S)-2,3,4,5-tetrahydro-3-hydroxybenzo[b][1,4]oxazepin-7-yl)amino)pyrimidin-5-carboxamide] | < 10 | < 10 | < 10 | < 10 |
| NC(=O)c1cnc(Nc2ccc3c(c2)NCC(O)CO3)nc1NC1CC1 (stereo not drawn) [Example 2, 4-(cyclopropylamino)-2-((3-hydroxy-2,3,4,5-tetrahydro-benzo[b][1,4]oxazepin-7-yl)amino)pyrimidin-5-carboxamide] | < 10 | < 10 | 10 to 100 | < 10 |
| NC(=O)c1cnc(Nc2ccc3c(c2)NC[C@H](O)CO3)nc1NCC1CCCCC1 [Example 50, 4-((cyclohexylmethyl)amino)-2-(((S)-2,3,4,5-tetrahydro-3-hydroxybenzo[b][1,4]oxazepin-7-yl)amino)pyrimidin-5-carboxamide] | 10 to 100 | < 10 | < 10 | < 10 |
| NC(=O)c1cnc(Nc2ccc3c(c2)NC[C@H](O)CO3)nc1NCCCO [Example 51, 4-((3-hydroxypropyl)amino)-2-(((S)-2,3,4,5-tetrahydro-3-hydroxybenzo[b][1,4]oxazepin-7-yl)amino)pyrimidin-5-carboxamide] | 10 to 100 | < 10 | 10 to 100 | 10 to 100 |
| NC(=O)c1cnc(Nc2ccc3c(c2)NC[C@H](O)CO3)nc1NC1CC(F)(F)C1 [Example 54, 4-((3,3-difluorocyclobutyl)amino)-2-(((S)-2,3,4,5-tetrahydro-3-hydroxybenzo[b][1,4]oxazepin-7-yl)amino)pyrimidin-5-carboxamide] | 10 to 100 | < 10 | 10 to 100 | 10 to 100 |
| NC(=O)c1cnc(Nc2ccc3c(c2)NC[C@H](O)CO3)nc1Nc1ccc2[nH]ccc2c1 [Example 34, 4-((1H-indol-5-yl)amino)-2-(((S)-2,3,4,5-tetrahydro-3-hydroxybenzo[b][1,4]oxazepin-7-yl)amino)pyrimidin-5-carboxamide] | < 10 | < 10 | < 10 | < 10 |

Further lines, results first:

| IC50 (JAK1 kinase) [nM] | IC50 (TYK2 kinase) [nM] | IC50 (JAK2 kinase) [nM] | IC50 (JAK3 kinase) [nM] | Structure (SMILES) |
| --- | --- | --- | --- | --- |
| < 10 | < 10 | 10 to 100 | 10 to 100 | C#CCNc1nc(Nc2ccc3c(c2)NC[C@H](O)CO3)ncc1C(N)=O [Example 65, 4-(prop-2-yn-1-ylamino)-2-(((S)-2,3,4,5-tetrahydro-3-hydroxybenzo[b][1,4]oxazepin-7-yl)amino)pyrimidin-5-carboxamide] |
| < 10 | < 10 | 10 to 100 | 10 to 100 | CCCO[C@H]1CNc2cc(Nc3ncc(C(N)=O)c(NC4CC4)n3)ccc2OC1 [Example 82, 4-(cyclopropylamino)-2-(((S)-2,3,4,5-tetrahydro-3-propoxybenzo[b][1,4]oxazepin-7-yl)amino)pyrimidin-5-carboxamide] |
| < 10 | < 10 | < 10 | < 10 | CCCCNc1nc(Nc2ccc3c(c2)NC[C@H](O)CO3)ncc1C(N)=O [Example 74, 4-(butylamino)-2-(((S)-2,3,4,5-tetrahydro-3-hydroxybenzo[b][1,4]oxazepin-7-yl)amino)pyrimidin-5-carboxamide] |
| < 10 | < 10 | < 10 | < 10 | CC(C)CNc1nc(Nc2ccc3c(c2)NC[C@H](O)CO3)ncc1C(N)=O [Example 70, 4-(isobutylamino)-2-(((S)-2,3,4,5-tetrahydro-3-hydroxybenzo[b][1,4]oxazepin-7-yl)amino)pyrimidin-5-carboxamide] |
| 10 to 100 | < 10 | 10 to 100 | 10 to 100 | NC(=O)c1cnc(Nc2ccc3c(c2)NC[C@H](O)CO3)nc1NCCN1CCOCC1 [Example 61, 4-((2-morpholinoethyl)amino)-2-(((S)-2,3,4,5-tetrahydro-3-hydroxybenzo[b][1,4]oxazepin-7-yl)amino)pyrimidin-5-carboxamide] |
| 10 to 100 | < 10 | 10 to 100 | 10 to 100 | NC(=O)c1cnc(Nc2ccc3c(c2)NC[C@H](O)CO3)nc1NC1CCOC1 (stereo partly drawn) [Example 64, 4-(tetrahydrofuran-3-ylamino)-2-(((S)-2,3,4,5-tetrahydro-3-hydroxybenzo[b][1,4]oxazepin-7-yl)amino)pyrimidin-5-carboxamide] |
| 10 to 100 | < 10 | 10 to 100 | 10 to 100 | CS(=O)(=O)CCNc1nc(Nc2ccc3c(c2)NC[C@H](O)CO3)ncc1C(N)=O [Example 67, 4-((2-methanesulfonylethyl)amino)-2-(((S)-2,3,4,5-tetrahydro-3-hydroxybenzo[b][1,4]oxazepin-7-yl)amino)pyrimidin-5-carboxamide] |
| < 10 | < 10 | < 10 | < 10 | CCCCCNc1nc(Nc2ccc3c(c2)NC[C@H](O)CO3)ncc1C(N)=O [Example 75, 4-(pentylamino)-2-(((S)-2,3,4,5-tetrahydro-3-hydroxybenzo[b][1,4]oxazepin-7-yl)amino)pyrimidin-5-carboxamide] |
| < 10 | < 10 | < 10 | < 10 | CC(Nc1nc(Nc2ccc3c(c2)NC[C@H](O)CO3)ncc1C(N)=O)C1CC1 (stereo partly drawn) [Example 55, 4-((1-cyclopropylethyl)amino)-2-(((S)-2,3,4,5-tetrahydro-3-hydroxybenzo[b][1,4]oxazepin-7-yl)amino)pyrimidin-5-carboxamide] |
| < 10 | < 10 | < 10 | < 10 | NC(=O)c1cnc(Nc2ccc3c(c2)NC[C@H](O)CO3)nc1NCC1CCC1 [Example 56, 4-((cyclobutylmethyl)amino)-2-(((S)-2,3,4,5-tetrahydro-3-hydroxybenzo[b][1,4]oxazepin-7-yl)amino)pyrimidin-5-carboxamide] |
